Measured values: patent US5846755A (priority 1995, dated 1998)
Read-outs that look alike come from different tables or passages of the source. Square brackets hold non-standard residues; d marks the D form. Peptide text beside a SMILES is read from it. * marks the point of attachment. Pip = O=C(O)[C@@H]1CCCCN1; Cbz = O=C(OCc1ccccc1)*

Assays:
[1] = biological target: enzyme purified from the venom of Crotalus Adamanteus (hemorrhagin) (Crotalus adamanteus, UniProt P34179); assay type: biochemical
Sequence of enzyme purified from the venom of Crotalus Adamanteus (hemorrhagin) (P34179 whole entry, looked up): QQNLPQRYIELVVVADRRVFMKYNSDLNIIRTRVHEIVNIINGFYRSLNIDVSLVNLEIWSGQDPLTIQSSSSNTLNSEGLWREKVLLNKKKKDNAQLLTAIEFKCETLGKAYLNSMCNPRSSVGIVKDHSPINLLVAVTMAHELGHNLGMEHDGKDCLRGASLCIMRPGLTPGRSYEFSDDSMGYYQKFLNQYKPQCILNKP

[2] = Resistance to proteolytic activity in stomach juices (rat stomach homogenate, HPLC); settings: 37° C.
Description: To check if the compounds of the present invention are resistant to proteolytic activity in stomach juices and, therefore, could be administered orally, the stomachs of fasting rats were homogenized in physiological solutions (1:1). 300 microliters of solutions of the compounds (1 mg/ml of saline) were incubated with 0.5 ml of stomach homogenates (37° C.).

[3] = biological target: neutrophil collagenase (recombinant human) (Homo sapiens, UniProt P22894); assay: In vitro assays on recombinant human collagenase; assay type: biochemical
Sequence of neutrophil collagenase (recombinant human) (P22894 101-467): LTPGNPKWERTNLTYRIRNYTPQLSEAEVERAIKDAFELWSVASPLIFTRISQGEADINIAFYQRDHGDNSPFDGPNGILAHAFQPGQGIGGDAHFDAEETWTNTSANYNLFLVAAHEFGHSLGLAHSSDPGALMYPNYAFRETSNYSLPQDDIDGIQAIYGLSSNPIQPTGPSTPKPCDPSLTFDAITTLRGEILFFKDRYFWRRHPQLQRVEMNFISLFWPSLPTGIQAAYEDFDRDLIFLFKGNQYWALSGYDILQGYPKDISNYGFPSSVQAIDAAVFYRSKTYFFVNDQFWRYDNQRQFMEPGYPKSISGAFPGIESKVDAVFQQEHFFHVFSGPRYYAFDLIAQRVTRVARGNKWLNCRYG
Description: Using the same enzymatic determination already described (fluorimetric detection of cleavage of a substrate peptide containing a fluorescent moiety), some of the compounds were tested on neutrophil collagenase, an enzyme described as participating in any kind of inflammatory reaction in mammalian bodies. In this case, the purified enxzyme was also obtained by recombinant means.

[4] = biological target: T1, recombinant human gelatinase A (Homo sapiens, UniProt P08253); assay: In vitro effects on recombinant human gelatinase A; assay type: biochemical
T1 construct: purchased Strangeways Laboratories, Cambridge, UK
T1 sequence (P08253 110-660): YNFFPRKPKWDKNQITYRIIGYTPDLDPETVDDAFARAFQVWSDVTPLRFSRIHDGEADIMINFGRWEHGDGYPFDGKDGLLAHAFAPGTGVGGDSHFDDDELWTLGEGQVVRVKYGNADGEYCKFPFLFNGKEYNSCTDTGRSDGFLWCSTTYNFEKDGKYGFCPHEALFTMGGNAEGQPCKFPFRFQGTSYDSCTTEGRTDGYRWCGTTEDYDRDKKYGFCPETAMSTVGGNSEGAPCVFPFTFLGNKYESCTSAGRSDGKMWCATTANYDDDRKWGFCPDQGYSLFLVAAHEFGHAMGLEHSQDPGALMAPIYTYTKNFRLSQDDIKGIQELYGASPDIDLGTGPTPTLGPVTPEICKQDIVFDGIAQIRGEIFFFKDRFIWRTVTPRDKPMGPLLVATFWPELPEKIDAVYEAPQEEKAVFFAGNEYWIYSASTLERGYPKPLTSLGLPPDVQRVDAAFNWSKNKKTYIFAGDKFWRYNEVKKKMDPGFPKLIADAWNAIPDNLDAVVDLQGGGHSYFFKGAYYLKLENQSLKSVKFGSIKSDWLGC
Excerpt: Assays on human gelatinase A, an enzyme released in high concentration by any kind of tumor cells during the process of metastatization, and recognized also as a product of stimulated cells in many pathological processes, have been performed using the protein obtained by recombinant biotechnology (Strangeways Laboratories, Cambridge, UK). The enzymatic activity has been followed over time, measuring the amount of fluorescent substrate cleaved by the enzyme, in the presence or absence of synthetic compounds (Perkin Elmer L50 B fluorimeter).

[5] = tested on: human melanoma cell line VMM-5; assay: Matrigel-based invasion assay with human melanoma cells; assay type: cell-based; settings: Concentration 500 micro M, VMM-5 cells, 20 hours
Excerpt: In order to obtain information about the possible interference of the synthesized compounds on the ability of tumor cells to migrate through the body (metastatization), the human melanoma cell line VMM-5 was used in the matrigel-based invasion assay, in which basal membrane matrigel (Becton Dickinson) and tissue culture inserts with 8 microns pore size in 24 well tissue culture plates were used as Boyden chambers. The chambers were coated with diluted matrigel and allowed to dry overnight; they were then reconstituted with serum free medium, and melanoma cells (4,000,000/ml) were dispensed in each insert. In the lower chambers, a chemoattractant was included. The chambers were finally placed in a humidified CO2 incubator at 37° C., and incubated for 20 hours. The inserts were dried and the cells on the upper surface removed. The polycarbonate filters were fixed with methanol, stained with hematoxylin and eosin, and counted with a microscope. Inhibition of migration due to compounds has been expressed as a percentage of the total number of migrated cells in the control chambers containing only the buffer in which the compounds were dissolved.

[6] = biological target: T2, recombinant human gelatinase B (Homo sapiens, UniProt P14780); assay: In vitro effects on recombinant human gelatinase B; assay type: biochemical
T2 construct: purchased Stangeways Laboratories, Cambridge, UK (so in the source)
T2 sequence (P14780 94-707): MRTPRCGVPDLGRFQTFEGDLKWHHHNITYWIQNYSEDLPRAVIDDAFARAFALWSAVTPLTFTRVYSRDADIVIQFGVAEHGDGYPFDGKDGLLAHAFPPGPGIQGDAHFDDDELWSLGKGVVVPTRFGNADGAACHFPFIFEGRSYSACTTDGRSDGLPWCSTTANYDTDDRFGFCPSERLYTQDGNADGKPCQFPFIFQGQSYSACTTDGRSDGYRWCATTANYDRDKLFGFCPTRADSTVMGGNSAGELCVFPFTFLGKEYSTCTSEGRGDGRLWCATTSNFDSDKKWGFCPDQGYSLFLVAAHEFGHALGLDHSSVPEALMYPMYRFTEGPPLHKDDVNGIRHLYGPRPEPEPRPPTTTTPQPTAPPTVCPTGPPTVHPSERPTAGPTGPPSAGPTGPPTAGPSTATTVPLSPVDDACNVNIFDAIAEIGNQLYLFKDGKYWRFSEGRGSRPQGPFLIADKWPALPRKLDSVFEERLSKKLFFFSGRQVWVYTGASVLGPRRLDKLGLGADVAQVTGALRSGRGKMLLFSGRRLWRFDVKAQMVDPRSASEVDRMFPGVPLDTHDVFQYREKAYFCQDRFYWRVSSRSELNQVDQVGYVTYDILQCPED
Description: Assays on human gelatinase B, another enzyme released by tumor cells, were performed using also, in this case, the protein obtained by recombinant biotechnology Stangeways Laboratories, Cambridge, UK). As usual, the enzymatic activity was followed over time, measuring the amount of fluorescent substrate cleaved by the enzyme, in the presence or absence of synthetic compounds (Perkin Elmer L50 B fluorimeter).

2-FUR--(L)--Phe--(S)--Cyt--OH [Compound 11]
IC50 ([1]; read-out: IC50): 53 nM | Residue after 60 Minutes [2]: 100% | Residue after 120 Minutes [2]: > 95% | % Inhibition ([3]; Concentration 2.2 × 10^-5 M): 27% | % Inhibition ([4]; Concentration 8.7 × 10^-7 M): 40%

COc1ccc2c(c1)C(CC(=O)NC(CC(C)C)C(=O)N1Cc3[nH]c4ccccc4c3CC1C(=O)O)CC2=O (mixture of isomers) [Compound 23, 5-MIA--(L)--Leu--(S)--Cyt--OH]
IC50 ([1]; read-out: IC50): 75 nM | % Inhibition ([4]; Concentration 8.0 × 10^-7 M): 40%

COc1ccc2[nH]c(C(=O)N[C@@H](CC3CCCCC3)C(=O)N3Cc4[nH]c5ccccc5c4C[C@H]3C(=O)O)cc2c1 [Compound 1, 5--MIC--Cha--(S)--Cyt--OH]
IC50 [1]: 29 nM | inhibition at 0.7 µM ([4]; Concentration 7.0 × 10^-7 M): 25%

CC(C)C[C@H](NC(=O)CSc1ncccn1)C(=O)N1Cc2[nH]c3ccccc3c2C[C@H]1C(=O)O [Compound 2, 2-PMTA--(L)--Leu--(S)--Cyt--OH]
IC50 ([1]; read-out: IC50): 230 nM

CC(C)C[C@H](NC(=O)CSc1ccncc1)C(=O)N1Cc2[nH]c3ccccc3c2C[C@H]1C(=O)O [Compound 3, 4-PTA--(L)--Leu--(S)--Cyt--OH]
IC50 ([1]; read-out: IC50): 360 nM | Residue after 60 Minutes [2]: 100% | Residue after 120 Minutes [2]: > 95% | % Inhibition of Invasion [5]: 69%

CC(C)C[C@H](NC(=O)c1nccnc1N)C(=O)N1Cc2[nH]c3ccccc3c2C[C@H]1C(=O)O [Compound 4, 3-APZC--(L)--Leu--(S)--Cyt--OH]
IC50 ([1]; read-out: IC50): 57 nM

COc1cccc2cc(C(=O)N[C@@H](CC(C)C)C(=O)N3Cc4[nH]c5ccccc5c4C[C@H]3C(=O)O)oc12 [Compound 5, 7-MBF--(L)--Leu--(S)--Cyt--OH]
IC50 ([1]; read-out: IC50): 94 nM

COc1cc(C(=O)N[C@@H](CC(C)C)C(=O)N2Cc3[nH]c4ccccc4c3C[C@H]2C(=O)O)nc2ccccc12 [Compound 6, 4-MQC--(L)--Leu--(S)--Cyt--OH]
IC50 ([1]; read-out: IC50): 50 nM

CC(C)C[C@H](NC(=O)c1cc2cc(O)ccc2[nH]1)C(=O)N1Cc2[nH]c3ccccc3c2C[C@H]1C(=O)O [Compound 7, 5-HIC--(L)--Leu--(S)--Cyt--OH]
IC50 ([1]; read-out: IC50): 23 nM

COc1ccc2[nH]c(C(=O)N[C@@H](Cc3ccccc3)C(=O)N3Cc4[nH]c5ccccc5c4C[C@H]3C(=O)O)cc2c1 [Compound 8, 5-MIC--(L)--Phe--(S)--Cyt--OH]
IC50 ([1]; read-out: IC50): 100 nM

CC(C)C[C@H](NC(=O)[C@@H](N)CCO)C(=O)N1Cc2[nH]c3ccccc3c2C[C@H]1C(=O)O [Compound 12, (L)--HomoSer--(L)--Leu--(S)--Cyt--OH]
IC50 ([1]; read-out: IC50): 5000 nM

CC(C)C[C@H](NC(=O)c1ccoc1)C(=O)N1Cc2[nH]c3ccccc3c2C[C@H]1C(=O)O [Compound 13, 3-Furoyl--(L)--Leu--(S)--Cyt--OH]
IC50 ([1]; read-out: IC50): 400 nM | % Inhibition ([4]; Concentration 9.4 × 10^-7 M): 41%

COc1ccc2[nH]c(C(=O)N[C@@H](Cc3c[nH]c4ccccc34)C(=O)N3Cc4[nH]c5ccccc5c4C[C@H]3C(=O)O)cc2c1 [Compound 14, 5-MIC--(L)--Trp--(S)--Cyt--OH]
IC50 ([1]; read-out: IC50): 47 nM | % Inhibition ([4]; Concentration 6.0 × 10^-7 M): 37%

CC(C)C[C@H](NC(=O)c1ccc2ccccc2n1)C(=O)N1Cc2[nH]c3ccccc3c2C[C@H]1C(=O)O [Compound 16, 2-QIC--(L)--Leu--(S)--Cyt--OH]
% Inhibition ([6]; Concentration 1.0 × 10^-5 M): 51% | IC50 ([1]; read-out: IC50): 28 nM | % Inhibition ([4]; Concentration 8.0 × 10^-7 M): 23%

COc1ccc2[nH]c(C(=O)N[C@@H](CC(C)C)C(=O)N3Cc4[nH]c5ccccc5c4C[C@H]3C(=O)O)cc2c1 [Compound 17, 5-MIC--(L)--Leu--(S)--Cyt--OH]
IC50 [1]: 23 nM

COc1ccccc1CC(=O)N[C@@H](CC(C)C)C(=O)N1Cc2[nH]c3ccccc3c2C[C@H]1C(=O)O [Compound 19, 2-MPA--(L)--Leu--(S)--Cyt--OH]
IC50 ([1]; read-out: IC50): 260 nM

CCOc1ccccc1C(=O)N[C@@H](CC(C)C)C(=O)N1Cc2[nH]c3ccccc3c2C[C@H]1C(=O)O [Compound 20, 2-EBZ--(L)--Leu--(S)--Cyt--OH]
IC50 ([1]; read-out: IC50): 130 nM

Cc1cnc(C(=O)N[C@@H](CC(C)C)C(=O)N2Cc3[nH]c4ccccc4c3C[C@H]2C(=O)O)cn1 [Compound 21, 5-MPZ--(L)--Leu--(S)--Cyt--OH]
% Inhibition ([6]; Concentration 5.5 × 10^-6 M): 43% | IC50 ([1]; read-out: IC50): 44 nM

COc1ccc(C(=O)N[C@@H](CC(C)C)C(=O)N2Cc3[nH]c4ccccc4c3C[C@H]2C(=O)O)c(OC)c1 [Compound 24, 2,4-Dimethoxybenzoyl--(L)--Leu--(S)--Cyt--OH]
% Inhibition ([6]; Concentration 1.0 × 10^-5 M): 48% | IC50 ([1]; read-out: IC50): 98 nM | % Inhibition of Invasion [5]: 100% | % Inhibition ([3]; Concentration 2.0 × 10^-5 M): 19%

CC(C)C[C@H](NC(=O)c1ccc([N+](=O)[O-])cc1)C(=O)N1Cc2[nH]c3ccccc3c2C[C@H]1C(=O)O [Compound 26, 4-NBZ--(L)--Leu--(S)--Cyt--OH]
IC50 ([1]; read-out: IC50): 95 nM | Residue after 60 Minutes [2]: 100% | Residue after 120 Minutes [2]: > 95%

CC(C)C[C@H](NC(=O)c1ccc(Cl)cc1)C(=O)N1Cc2[nH]c3ccccc3c2C[C@H]1C(=O)O [Compound 27, 4-CBZ--(L)--Leu--(S)--Cyt--OH]
IC50 ([1]; read-out: IC50): 100 nM | % Inhibition ([3]; Concentration 2.1 × 10^-5 M): 28%

CC(C)C[C@H](NC(=O)c1cccnc1)C(=O)N1Cc2[nH]c3ccccc3c2C[C@H]1C(=O)O [Compound 28, 3-NIC--(L)--Leu--(S)--Cyt--OH]
IC50 ([1]; read-out: IC50): 100 nM

CC(C)C[C@H](NC(=O)c1ccncc1)C(=O)N1Cc2[nH]c3ccccc3c2C[C@H]1C(=O)O [Compound 29, 4-NIC--(L)--Leu--(S)--Cyt--OH]
IC50 ([1]; read-out: IC50): 400 nM

COc1ccc(C(=O)N[C@@H](CC(C)C)C(=O)N2Cc3[nH]c4ccccc4c3C[C@H]2C(=O)O)cc1OC [Compound 30, 3,4-DMB--(L)--Leu--(S)--Cyt--OH]
IC50 ([1]; read-out: IC50): 380 nM | Residue after 60 Minutes [2]: 100% | Residue after 120 Minutes [2]: > 95%

O=C(N[C@@H](Cc1c[nH]c2ccccc12)C(=O)N1Cc2[nH]c3ccccc3c2C[C@H]1C(=O)O)c1ccco1 [Compound 34, 2-FUR--(L)--Trp--(S)--Cyt--OH]
IC50 ([1]; read-out: IC50): 400 nM

NC(=O)C[C@H](NC(=O)c1ccco1)C(=O)N1Cc2[nH]c3ccccc3c2C[C@H]1C(=O)O [Compound 35, 2-FUR--(L)--Asn--(S)--Cyt--OH]
IC50 ([1]; read-out: IC50): 8000 nM

O=C(NCCCC[C@H](NC(=O)c1ccco1)C(=O)N1Cc2[nH]c3ccccc3c2C[C@H]1C(=O)O)OCC1c2ccccc2-c2ccccc21 [Compound 36, 2-FUR--(L)--Lys(Fmoc)--(S)--Cyt--OH]
IC50 ([1]; read-out: IC50): 100 nM

CC(C)C[C@H](NC(=O)c1cccc2ccccc12)C(=O)N1Cc2[nH]c3ccccc3c2C[C@H]1C(=O)O [Compound 37, 1-NAF--(L)--Leu--(S)--Cyt--OH]
IC50 ([1]; read-out: IC50): 210 nM

CC(C)C[C@H](NC(=O)c1ccc[nH]1)C(=O)N[C@@H](Cc1c[nH]c2ccccc12)C(=O)O [Pirr--Leu--Trp]
% Inhibition ([3]; Concentration 1.1 × 10^-5 M): 15% | % Inhibition ([4]; Concentration 9.0 × 10^-6 M): 33%

CC(C)C[C@H](NC(=O)c1cccs1)C(=O)N[C@@H](Cc1c[nH]c2ccccc12)C(=O)O [Tiof--Leu--Trp]
% Inhibition ([4]; Concentration 8.0 × 10^-6 M): 60%

CC(C)C[C@H](NC(=O)[C@@H]1CCCCN1C(=O)OCc1ccccc1)C(=O)N[C@@H](Cc1c[nH]c2ccccc12)C(=O)O [Z--Pip--Leu--Trp] (Cbz-[Pip]-Leu-Trp-OH)
% Inhibition ([4]; Concentration 9.0 × 10^-6 M): 63%

BZS--(L)--Phe--(S)--Cyt--OH [Compound 32]
% Inhibition ([6]; Concentration 1.0 × 10^-5 M): 42% | IC50 ([1]; read-out: IC50): 2000 nM

MePro--Ala--Cyt
% Inhibition ([4]; Concentration 9.0 × 10^-6 M): 39%

MePro--Leu--Cyt
% Inhibition ([6]; Concentration 1.1 × 10^-5 M): 37% | % Inhibition of Invasion [5]: 40%
